Experimental data: article PMC4666645 (PLoS Pathogens, 2015)
Several values for one entry are separate records, joined by “and”; a condition that tells them apart may be missing. Equal entries are not always repeated. Structures can show the parent of a compound that is named as a salt.

Tests used:
[1] = molecular target: Hco-L-AChR-1 (Hco-UNC-38, Hco-UNC-63, Hco-UNC-29.1, Hco-ACR-8) (Haemonchus contortus, UniProt A9XX24+D6MYE9+D6MYF3+D6MYF4); experiment: Two-electrode voltage-clamp on Xenopus oocytes expressing Hco-L-AChR-1; type: cell-based; details: for Response to agonist: 100 μM agonist
Excerpt: (§1) H. contortus and P. equorum acr-26 and acr-27 cDNAs were PCR-amplified using primers containing a restriction site in order to be sub-cloned into the expression vector pTB207 that is suitable for in vitro transcription. Primers are listed in S3 Table. The resulting plasmids were linearized with the NheI restriction enzyme (Fermantas) and used as templates for cRNA synthesis using the T7 mMessage mMachine kit (Ambion). Xenopus laevis ovaries were obtained from the University of Rennes, France (CRB Xenope) and defolliculated using 2 mg/ml collagenase type II (Gibco) in the incubation solution containing: 100 mM NaCl, 2 mM KCl, 1.8 mM CaCl2.2H2O, 1 mM MgCl2.6H2O, 5 mM HEPES, 2.5 mM C3H3NaO3, pH 7.5, supplemented with penicillin 100 U/mL and streptomycin 100 μg/mL). The oocytes were injected in the animal pole with a total volume of 36 nL of cRNA mix containing 50 ng/μL of each cRNA in RNase-free water using the Drummond nanoject II microinjector. Microinjected oocytes were kept at 20°C in incubation medium for 4 days to allow the receptors expression. Two-electrode voltage-clamp recordings were carried out using an Oocyte Clamp OC-725C amplifier (Warner instrument) in oocytes being voltage-clamped at -60mV. All agonist preparations were prepared with recording buffer (100 mM NaCl, 2.5 mM KCl, 1 mM CaCl2.2H2O, 5 mM HEPES, pH 7.3). Currents were recorded and analyzed using the pCLAMP 10.4 package (Molecular Devices).
Supplementary file ppat.1005267.s003.tif: S3 Fig Pharmacological profiles of Hco-L-AChR-1 and Hco-L-AChR-2. […] The bars indicate the time period of the agonist application. Functional expression of Hco-L-AChR-1 requires the co-expression of Hco-UNC-38; Hco-UNC-63; Hco-UNC-29.1 and Hco-ACR-8 AChR subunits with the ancillary proteins Hco-RIC-3.1; Hco-UNC-50 and Hco-UNC-74 whereas Hco-L-AChR-2 requires the co-expression of Hco-UNC-38; Hco-UNC-63 and Hco-UNC-29.1 AChR subunits with the ancillary proteins Hco-RIC-3.1; Hco-UNC-50 and Hco-UNC-74. (C) Scatter plot (mean ± SEM) of normalized currents elicited by 100 μM Mor on Hco-26/27, Hco-L-AChR-1 and Hco-L-AChR-2. Currents have been normalized to and compared with 100 μM ACh elicited currents. Paired Student’s t-test, ***p<0.001. (D) Dose-response relationships of Hco-L-AChR-1 (black circle, n = 7) and Hco-L-AChR-2 (blue squares, n = 9) for Mor. Responses are normalized to 300 μM ACh elicited currents as described in Boulin et al.. […] (TIF) Click here for additional data file.

Peq-26/27 receptor = Peq-26/27 receptor (Parascaris equorum, UniProt A0A0U2ES47+A0A0U2ES58); experiment: cell-based; details: for Emax at 100 µM: read-out: Current elicited, % of ACh response
Procedure: In order to determine if ACR-26 and ACR-27 subunits from other parasitic nematodes species could also form functional receptors when expressed in Xenopus oocyte, Peq-acr-26 and Peq-acr-27 cRNAs from the distantly related P. equorum (Clade III) were co-injected in combination with Hco-ric-3.1, Hco-unc-74 and Hco-unc-50 cRNAs. Four days after injection, we observed robust expression of a functional AChR responding to 100 μM ACh (Fig 6B). […] This novel heteropentameric AChR was named Peq-26/27.
as §1

Chain of Peq-26/27 receptor (A0A0U2ES58 entry or part of it): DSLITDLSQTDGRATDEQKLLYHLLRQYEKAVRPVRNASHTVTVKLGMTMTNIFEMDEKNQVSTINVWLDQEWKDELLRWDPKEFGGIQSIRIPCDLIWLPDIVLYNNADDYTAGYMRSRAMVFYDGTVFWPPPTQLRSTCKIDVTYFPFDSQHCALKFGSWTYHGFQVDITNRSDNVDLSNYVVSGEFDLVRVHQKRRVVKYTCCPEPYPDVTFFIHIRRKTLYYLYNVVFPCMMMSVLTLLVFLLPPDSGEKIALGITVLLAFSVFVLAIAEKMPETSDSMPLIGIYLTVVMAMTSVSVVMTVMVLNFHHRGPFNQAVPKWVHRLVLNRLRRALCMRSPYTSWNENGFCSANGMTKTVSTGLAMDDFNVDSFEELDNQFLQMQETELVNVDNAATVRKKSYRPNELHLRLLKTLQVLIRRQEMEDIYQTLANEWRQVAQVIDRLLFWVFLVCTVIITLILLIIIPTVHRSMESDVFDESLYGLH
Chain of Peq-26/27 receptor (A0A0U2ES47 entry or part of it): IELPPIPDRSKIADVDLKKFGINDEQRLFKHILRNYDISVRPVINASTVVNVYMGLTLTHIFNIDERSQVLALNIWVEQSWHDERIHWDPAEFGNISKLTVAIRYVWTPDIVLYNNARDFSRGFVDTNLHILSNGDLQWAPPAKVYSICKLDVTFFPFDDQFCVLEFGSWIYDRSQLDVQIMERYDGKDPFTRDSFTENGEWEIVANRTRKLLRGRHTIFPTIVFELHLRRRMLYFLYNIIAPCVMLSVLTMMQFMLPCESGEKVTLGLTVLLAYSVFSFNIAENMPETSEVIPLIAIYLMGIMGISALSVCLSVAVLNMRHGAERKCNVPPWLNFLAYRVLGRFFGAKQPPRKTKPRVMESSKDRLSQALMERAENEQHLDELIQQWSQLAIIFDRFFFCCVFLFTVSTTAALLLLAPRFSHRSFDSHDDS
Chain of Hco-L-AChR-1 (Hco-UNC-38, Hco-UNC-63, Hco-UNC-29.1, Hco-ACR-8) (D6MYF3 20-512): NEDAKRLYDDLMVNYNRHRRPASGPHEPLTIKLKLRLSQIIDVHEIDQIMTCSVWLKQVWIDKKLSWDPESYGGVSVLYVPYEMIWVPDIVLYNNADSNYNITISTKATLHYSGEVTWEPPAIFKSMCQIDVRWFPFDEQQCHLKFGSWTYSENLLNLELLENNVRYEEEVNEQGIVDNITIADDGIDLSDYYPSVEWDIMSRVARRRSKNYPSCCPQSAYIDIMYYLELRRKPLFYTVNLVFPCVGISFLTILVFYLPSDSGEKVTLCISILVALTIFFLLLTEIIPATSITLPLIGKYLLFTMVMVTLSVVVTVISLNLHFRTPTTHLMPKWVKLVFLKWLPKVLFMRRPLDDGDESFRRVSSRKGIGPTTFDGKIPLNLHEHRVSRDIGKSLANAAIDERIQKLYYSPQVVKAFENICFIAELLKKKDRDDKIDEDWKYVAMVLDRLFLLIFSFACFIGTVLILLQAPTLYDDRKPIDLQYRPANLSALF
Chain of Hco-L-AChR-1 (Hco-UNC-38, Hco-UNC-63, Hco-UNC-29.1, Hco-ACR-8) (D6MYF4 22-504): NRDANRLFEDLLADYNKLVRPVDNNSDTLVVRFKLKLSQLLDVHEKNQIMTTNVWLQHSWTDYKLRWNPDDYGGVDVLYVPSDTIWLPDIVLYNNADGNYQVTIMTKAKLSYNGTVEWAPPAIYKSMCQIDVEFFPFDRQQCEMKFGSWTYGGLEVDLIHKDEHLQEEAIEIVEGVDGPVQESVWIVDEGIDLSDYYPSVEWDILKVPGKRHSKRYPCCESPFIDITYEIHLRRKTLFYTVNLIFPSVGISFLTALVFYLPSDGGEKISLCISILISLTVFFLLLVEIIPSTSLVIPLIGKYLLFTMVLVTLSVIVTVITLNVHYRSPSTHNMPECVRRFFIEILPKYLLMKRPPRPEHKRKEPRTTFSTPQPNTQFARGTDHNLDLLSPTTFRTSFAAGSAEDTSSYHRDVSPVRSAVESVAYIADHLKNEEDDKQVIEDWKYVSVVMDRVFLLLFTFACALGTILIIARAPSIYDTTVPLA
Chain of Hco-L-AChR-1 (Hco-UNC-38, Hco-UNC-63, Hco-UNC-29.1, Hco-ACR-8) (D6MYE9 21-498): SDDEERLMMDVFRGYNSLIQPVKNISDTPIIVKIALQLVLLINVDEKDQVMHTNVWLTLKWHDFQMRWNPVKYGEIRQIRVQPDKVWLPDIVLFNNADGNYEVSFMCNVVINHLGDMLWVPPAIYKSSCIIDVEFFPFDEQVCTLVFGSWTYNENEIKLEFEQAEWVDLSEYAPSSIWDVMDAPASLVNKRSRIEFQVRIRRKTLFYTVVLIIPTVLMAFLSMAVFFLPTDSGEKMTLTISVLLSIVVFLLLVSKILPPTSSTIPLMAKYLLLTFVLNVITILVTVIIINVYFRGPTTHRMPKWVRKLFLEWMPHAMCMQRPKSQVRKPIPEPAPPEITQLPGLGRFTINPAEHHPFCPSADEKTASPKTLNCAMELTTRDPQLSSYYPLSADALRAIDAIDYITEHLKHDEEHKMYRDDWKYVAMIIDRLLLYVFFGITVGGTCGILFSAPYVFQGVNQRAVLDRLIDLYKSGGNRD
Chain of Hco-L-AChR-1 (Hco-UNC-38, Hco-UNC-63, Hco-UNC-29.1, Hco-ACR-8) (A9XX24 19-536): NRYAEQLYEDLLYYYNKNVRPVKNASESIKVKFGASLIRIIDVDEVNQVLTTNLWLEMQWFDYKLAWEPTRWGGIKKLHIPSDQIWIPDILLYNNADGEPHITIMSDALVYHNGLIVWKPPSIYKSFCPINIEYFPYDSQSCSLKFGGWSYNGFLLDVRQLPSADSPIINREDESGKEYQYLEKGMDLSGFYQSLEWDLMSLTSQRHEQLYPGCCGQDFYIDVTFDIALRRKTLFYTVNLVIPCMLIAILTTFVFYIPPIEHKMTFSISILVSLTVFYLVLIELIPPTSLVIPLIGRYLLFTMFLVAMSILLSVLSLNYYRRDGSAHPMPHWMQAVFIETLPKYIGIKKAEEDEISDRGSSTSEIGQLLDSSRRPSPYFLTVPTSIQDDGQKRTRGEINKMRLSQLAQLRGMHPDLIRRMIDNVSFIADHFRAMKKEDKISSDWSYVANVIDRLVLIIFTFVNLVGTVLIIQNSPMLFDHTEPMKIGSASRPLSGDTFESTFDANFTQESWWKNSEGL

For `Cc1ccsc1/C=C/C1=NCCCN1C` [Mor, morantel], the “Concentrations with potential channel-block effect” value [1] was “above 30 μM”, the EC50 [1] was 0.41 ± 0.23 µM and the “Response to agonist” value [1] was “weak response”. For the same molecule, the Emax at 100 µM (Peq-26/27 receptor) was 74.5 ± 4.9%.

`CN1CCCN=C1/C=C/c1cccs1` [Pyr, pyrantel] was tested, and the Emax at 100 µM (Peq-26/27 receptor) was 21.8 ± 2.1%.

`c1ccc([C@H]2CN3CCSC3=N2)cc1` [Lev, (-)-tetramisole hydrochloride] was tested, and the “Response to agonist” value [1] was “very responsive”, the EC50 (Peq-26/27 receptor; EC50, responses normalized to 1 mM ACh) was 16.7 µM and 17 µM and the Emax at 100 µM (Peq-26/27 receptor) was 24.5 ± 2.4%.
